The target of one data set is T1, AChE (from electric eel) (Electrophorus electricus, UniProt O42275).
T1 construct: AChE (from electric eel); from tissue
The data set can be described thus: biochemical. The class given is biochemical. Particulars: for Ki: Lineweaver–Burk plots, mean ± SEM, read-out: AChE K I; for IC50: electric eel AChE, ATChI substrate, 37 °C, pH 8.0; for selectivity for AChE than for BChE (in words): from K I values / selectivity index.

Another data set addresses T2, BChE (from equine serum) (Equus caballus, UniProt P81908).
T2 construct: BChE (from equine serum); from tissue; host or cells: equine serum
The data set can be described thus: biochemical. The note with it: for Ki: Lineweaver–Burk plots, mean ± SEM, read-out: BChE K I; for IC50: equine serum BChE, BChI substrate, 37 °C, pH 8.0.

The nature of data set [1]: MTT cytotoxicity test on HUVEC cell line. The class given is cell-based. Particulars: human, HUVEC cells (healthy cell line). Here is the method:
Cell culture studies were conducted using the previously mentioned method , and HUVEC (healthy cell line) was grown for this study. After the cells were grown, the maximum dose accepted as 100 μM drug concentration was applied to the cell line for all compounds, and cell viability was determined. , The results were illustrated in Table .
The cytotoxic effect of all compounds by MTT analysis was performed to determine the proliferation on the HUVEC cell line. The MTT [3-(4,5-dimethyl-2-thiazol)-2,5-diphenyl-2H-tetrazolium bromide] cytotoxicity assay was employed according to previous studies with minor modifications. −

Usually IC50 stands for the concentration that gives 50% inhibition. The term viability denotes a read-out of living cells in per cent, often relative to untreated cells.

Molecules are shown by their SMILES. Entries after “also recorded” stand apart in the source; their conditions may differ.

T2 sequence (P81908 whole entry): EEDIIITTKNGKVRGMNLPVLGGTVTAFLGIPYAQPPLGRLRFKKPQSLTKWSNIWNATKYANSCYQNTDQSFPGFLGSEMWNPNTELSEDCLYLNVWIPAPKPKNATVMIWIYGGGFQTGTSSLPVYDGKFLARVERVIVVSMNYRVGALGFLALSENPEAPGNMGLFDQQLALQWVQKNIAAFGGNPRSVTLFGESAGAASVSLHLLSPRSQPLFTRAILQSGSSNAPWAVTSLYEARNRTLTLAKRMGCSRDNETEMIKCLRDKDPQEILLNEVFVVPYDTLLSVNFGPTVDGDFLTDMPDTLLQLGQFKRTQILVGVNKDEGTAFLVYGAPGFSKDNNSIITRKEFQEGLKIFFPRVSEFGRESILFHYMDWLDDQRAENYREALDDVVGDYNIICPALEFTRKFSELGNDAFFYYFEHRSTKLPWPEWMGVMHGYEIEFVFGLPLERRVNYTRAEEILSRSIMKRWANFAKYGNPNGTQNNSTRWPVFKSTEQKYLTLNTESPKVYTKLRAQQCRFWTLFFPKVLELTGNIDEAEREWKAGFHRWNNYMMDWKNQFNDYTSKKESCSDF
T1 sequence (O42275 24-633): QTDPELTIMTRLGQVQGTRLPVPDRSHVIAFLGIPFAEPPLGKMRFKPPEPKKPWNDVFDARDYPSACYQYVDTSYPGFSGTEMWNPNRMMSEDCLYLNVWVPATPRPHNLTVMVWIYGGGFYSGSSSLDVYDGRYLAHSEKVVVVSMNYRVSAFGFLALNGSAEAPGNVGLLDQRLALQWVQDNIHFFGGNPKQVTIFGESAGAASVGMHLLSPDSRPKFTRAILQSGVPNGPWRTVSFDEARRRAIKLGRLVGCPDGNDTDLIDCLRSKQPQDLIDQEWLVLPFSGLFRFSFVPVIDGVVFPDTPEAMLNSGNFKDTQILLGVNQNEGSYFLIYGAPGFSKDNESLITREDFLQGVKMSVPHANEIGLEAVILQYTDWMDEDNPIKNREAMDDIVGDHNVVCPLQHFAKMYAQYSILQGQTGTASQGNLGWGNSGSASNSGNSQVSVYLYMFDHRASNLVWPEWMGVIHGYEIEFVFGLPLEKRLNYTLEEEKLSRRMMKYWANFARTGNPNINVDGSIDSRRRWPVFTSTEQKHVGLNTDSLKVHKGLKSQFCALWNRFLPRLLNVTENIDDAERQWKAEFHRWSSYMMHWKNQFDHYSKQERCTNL

With `COc1ccc(C2=NN(c3nc(-c4ccccc4)cs3)C(c3ccc(C)s3)C2)cc1OC` (stereo not drawn) [Compound 3a, 2-[3-(3,4-Dimethoxyphenyl)-5-(5-methylthiophen-2-yl)-4,5-dihydro-1H-pyrazol-1-yl]-4-phenylthiazole], at AChE (from electric eel), the “SI (selectivity index) = K I (AChE)/ K I (BChE)” value (“SI (selectivity index) = K I” for short) was 0.660, the Ki came to 886 ± 54 nM and the IC50 turned out to be 2850 nM. Besides, at BChE (from equine serum), the Ki is 1350 ± 83 nM and the IC50 is 4300 nM. For the same compound, the viability at 24 h, 100 µM in data set [1] came to 99.2%.
With `COc1ccc(C2=NN(c3nc(-c4ccc(C)cc4)cs3)C(c3ccc(C)s3)C2)cc1OC` (stereo not drawn) [Compound 3b, 2-[3-(3,4-Dimethoxyphenyl)-5-(5-methylthiophen-2-yl)-4,5-dihydro-1H-pyrazol-1-yl]-4-(4-methylphenyl)thiazole], on AChE (from electric eel), the “SI (selectivity index) = K I” value amounted to 0.361, the Ki amounted to 804 ± 62 nM, half-maximal inhibition (IC50) required 4010 nM and the “selectivity for AChE than for BChE (in words)” value (shortened to “selectivity for AChE than”) is given as “more significant selectivity”. In addition, on BChE (from equine serum), the Ki amounted to 2220 ± 132 nM and the IC50 stood at 4150 nM. Moreover, the viability at 24 h, 100 µM in data set [1] amounted to 133%.
Turning to `COc1ccc(-c2csc(N3N=C(c4ccc(OC)c(OC)c4)CC3c3ccc(C)s3)n2)cc1` (stereo not drawn) [Compound 3c, 2-[3-(3,4-Dimethoxyphenyl)-5-(5-methylthiophen-2-yl)-4,5-dihydro-1H-pyrazol-1-yl]-4-(4-methoxyphenyl)thiazole], on AChE (from electric eel), the “SI (selectivity index) = K I” value is listed as 1.016, the Ki turned out to be 1180 ± 83 nM and 4810 nM corresponded to half-maximal inhibition (IC50). In addition, at BChE (from equine serum), the Ki amounted to 1160 ± 62 nM and the IC50 was 3070 nM. In addition, the viability at 24 h, 100 µM in data set [1] is 97.2%.
As for `COc1ccc(C2=NN(c3nc(-c4ccc(Cl)cc4)cs3)C(c3ccc(C)s3)C2)cc1OC` (stereo not drawn) [Compound 3d, 2-[3-(3,4-Dimethoxyphenyl)-5-(5-methylthiophen-2-yl)-4,5-dihydro-1H-pyrazol-1-yl]-4-(4-chlorophenyl)thiazole], on AChE (from electric eel), the “SI (selectivity index) = K I” value stood at 0.074, the Ki is 121 ± 7 nM, the IC50 was determined as 523 nM and the “selectivity for AChE than” value is recorded as “more significant selectivity”. Besides, on BChE (from equine serum), the Ki stood at 1640 ± 85 nM and the IC50 is 6030 nM. Besides, in data set [1], the viability at 24 h, 100 µM amounted to 126%.
For `COc1ccc(C2=NN(c3nc(-c4ccc(F)cc4)cs3)C(c3ccc(C)s3)C2)cc1OC` (stereo not drawn) [Compound 3e, 2-[3-(3,4-Dimethoxyphenyl)-5-(5-methylthiophen-2-yl)-4,5-dihydro-1H-pyrazol-1-yl]-4-(4-fluorophenyl)thiazole], on AChE (from electric eel), the “SI (selectivity index) = K I” value is 0.082, the Ki was 143 ± 84 nM, 385 nM corresponded to half-maximal inhibition (IC50) and the “selectivity for AChE than” value was “more significant selectivity”. Also, at BChE (from equine serum), the Ki was 1720 ± 150 nM and the IC50 is 3320 nM. Besides, the viability at 24 h, 100 µM in data set [1] amounted to 118%.
In the case of `COc1ccc(C2=NN(c3nc(-c4ccc([N+](=O)[O-])cc4)cs3)C(c3ccc(C)s3)C2)cc1OC` (stereo not drawn) [Compound 3f, 2-[3-(3,4-Dimethoxyphenyl)-5-(5-methylthiophen-2-yl)-4,5-dihydro-1H-pyrazol-1-yl]-4-(4-nitrophenyl)thiazole], on AChE (from electric eel), the “SI (selectivity index) = K I” value is 0.039, the Ki came to 57 ± 3 nM, the IC50 turned out to be 382 nM and the “selectivity for AChE than” value is reported as “highest selectivity for AChE; also recorded: more significant selectivity”. At BChE (from equine serum), the Ki stood at 1460 ± 71 nM and the IC50 was found to be 4250 nM. Moreover, the viability at 24 h, 100 µM in data set [1] stood at 86%.
For the compound `COc1ccc(C2=NN(c3nc(-c4ccc(C#N)cc4)cs3)C(c3ccc(C)s3)C2)cc1OC` (stereo not drawn) [Compound 3g, 2-[3-(3,4-Dimethoxyphenyl)-5-(5-methylthiophen-2-yl)-4,5-dihydro-1H-pyrazol-1-yl]-4-(4-cyanophenyl)thiazole], at AChE (from electric eel), the “SI (selectivity index) = K I” value was determined as 0.057, the Ki came out at 45 ± 2 nM, the IC50 is 338 nM and the “selectivity for AChE than” value was “highest selectivity for AChE; also recorded: more significant selectivity”. Also, on BChE (from equine serum), the Ki amounted to 789 ± 56 nM and half-maximal inhibition (IC50) required 2090 nM. Moreover, in data set [1], the viability at 24 h, 100 µM turned out to be 94%.
On to `COc1ccc(C2=NN(c3nc(-c4ccc(Cl)cc4Cl)cs3)C(c3ccc(C)s3)C2)cc1OC` (stereo not drawn) [Compound 3h, 2-[3-(3,4-Dimethoxyphenyl)-5-(5-methylthiophen-2-yl)-4,5-dihydro-1H-pyrazol-1-yl]-4-(2,4-dichlorophenyl)thiazole], for which, at AChE (from electric eel), the “SI (selectivity index) = K I” value was determined as 0.655, the Ki was determined as 1100 ± 58 nM and it took 5460 nM to reach half-maximal inhibition (IC50). For the same compound, at BChE (from equine serum), the Ki came out at 1690 ± 82 nM and the IC50 is 4990 nM. Moreover, the viability at 24 h, 100 µM in data set [1] is 138%.
In the case of `COc1ccc(C2=NN(c3nc(-c4ccc(F)cc4F)cs3)C(c3ccc(C)s3)C2)cc1OC` (stereo not drawn) [Compound 3i, 2-[3-(3,4-Dimethoxyphenyl)-5-(5-methylthiophen-2-yl)-4,5-dihydro-1H-pyrazol-1-yl]-4-(2,4-difluorophenyl)thiazole], at AChE (from electric eel), the “SI (selectivity index) = K I” value was found to be 0.332, the Ki amounted to 529 ± 34 nM and it took 6420 nM to reach half-maximal inhibition (IC50). Besides, at BChE (from equine serum), the Ki came out at 1590 ± 78 nM and the IC50 was found to be 7370 nM. The viability at 24 h, 100 µM in data set [1] turned out to be 86.4%.
In the case of `COc1ccc(C2=NN(c3nc(-c4cccc([N+](=O)[O-])c4)cs3)C(c3ccc(C)s3)C2)cc1OC` (stereo not drawn) [Compound 3j, 2-[3-(3,4-Dimethoxyphenyl)-5-(5-methylthiophen-2-yl)-4,5-dihydro-1H-pyrazol-1-yl]-4-(3-nitrophenyl)thiazole], at AChE (from electric eel), the “SI (selectivity index) = K I” value amounted to 0.178, the Ki was 423 ± 23 nM, the IC50 is 4030 nM and the “selectivity for AChE than” value is listed as “more significant selectivity”. In addition, on BChE (from equine serum), the Ki was 2370 ± 114 nM and inhibition was half-maximal at 4920 nM (IC50). For the same compound, the viability at 24 h, 100 µM in data set [1] turned out to be 102%.

The record behind these values is publication PMC12409578 (ACS Omega, 2025).
